Source: article PMC7201278, “A structural study of TatD from Staphylococcus aureus elucidates a putative DNA-binding mode of a Mg^2+-dependent nuclease” (IUCrJ, 2020)

What was measured:
[1] = target: T1, SaTatD (SAV0491) (Staphylococcus aureus, UniProt W8U6D8); details: two phosphates per monomer in active site, coordinated to two Ni2+; SeMet-derived protein; 2.4 M sodium malonate pH 7.0, 20°C
T1 construct: gene yabD

[2] = target: SaTatD (SAV0491), TatD-like DNase from Staphylococcus aureus (Mu50 strain) (Staphylococcus aureus (Mu50 strain)); assay: SEC; analytical gel filtration, Superdex 200 (10/300 GL), buffer A (20 mM Tris, 150 mM NaCl pH 8.0), 0.5 ml/min, gel-filtration standards; SaTatD at 20.0 mg/ml (high concentration)

Compound: O=P(O)(O)O [phosphate]
- X-ray crystal structure (SAD, 1.85 Å) [1]: Polar interactions were also observed between the two phosphates and the surface residues of SaTatD

Compound: SaTatD (SAV0491), TatD-like DNase from Staphylococcus aureus (Mu50 strain) (enzyme)
- stoichiometry N [2]: 2
